Results taken from US20230382904A1, “SUBSTITUTED 4-([1,2,4]TRIAZOLO[1,5-a]PYRIDIN-6-YL)THIOPHENE-2-CARBOXAMIDE DERIVATIVES AND USE THEREOF” (The Johns Hopkins University, priority 2020, published 2023).

What was measured:
Assay type in all cases: in vivo
[1] = Ischemia/Reperfusion (I/R) rat model, optokinetic tracking; details: prophylactic setting, after a 20 minute ischemic event
Experimental: The animals were placed under anesthesia (Rompun (Xylazin als Xylazinhydrochlorid) 2%, Bayer, PZN-1320422, Ketavet (Ketaminhydrochlorid) 100 mg/mL, Pfizer, PZN-3151811) and the pupil on the right eye dilated (Neosynephrin-POS 5% Augentropfen, […], PZN 0828584).
When anesthetized, local anesthetic eye drops (Alcaine, lokalanästhetische Augentropfen, Alcon, 37516058) were applied to the right eye. The rat is on the left side. After a short exposure time, a 30G cannula was inserted laterally into the anterior chamber of the eye. To do this, the eye was fixed with a cotton swab so that it emerged from the eye socket. Once the cannula was placed, the eye was carefully released. The 30G cannula was connected via infusion set to a bag of isotonic infusion solution. The infusion bag hung in a pressure cuff. The pressure was regulated via the pressure cuff and the manometer. For the model, the intraocular pressure is increased to 120 mm Hg. The duration is 20 min. If the cannula fits correctly, the eye turns white, because the blood circulation was interrupted. During treatment, the rats lied on a warm mat (level 2). It was necessary to observe the anesthetic state of the animal. […]
For the optomotry readout only the spatial resolution is measured (spatial frequency). Both eyes were measured. […]

DLK pathway activation = assay: Mouse optic nerve crush, p-JUN immunoreactivity in RGC layer; details: compared to RGCs treated with the vehicle
Experimental: Approximately three-month-old male C57BL/6 mice were anesthetized with 100/10 mg/kg of Ketamine/Xylazine followed by topical administration of proparacaine. Under the binocular operating scope, optic nerves were surgically exposed and crushed with Dumont N7 self-closing forceps 1-2 mm behind the globe. A small incision was made at the conjunctiva located at lateral orbit of eye globe using spring scissors. To avoid bleeding from the vasculature, minimum incision was continued until the optic nerve was exposed. After clean exposure, the optic nerve was grasped at approximately 1-2 mm from the globe for 3-7 seconds using the fine micro forceps. After careful removal of the micro forceps, the globe was relocated and Tobramycin was administered. Ten days after nerve crush, eyes were enucleated and fixed and surviving RGC was immunostained for SNCG, RBPMS and βIII-tubulin. The retinas were then imaged with a Nikon Eclipse TE2000-5 fluorescence microscope and Plan-fluor 40 Å˜/0.6 objective. […] RGCs were counted manually from each image. In a separate cohort of animals, optic nerves and retinas were sectioned and stained for phospho-JUN (an indicator of DLK pathway activation) 24 hours after optic nerve crush. Intravitreal injection, optic nerve crush, immunofluorescence, and RGC counting were performed in a masked fashion.

[2] = Mouse light damage model (serial OCT and serial ERG); details: versus vehicle
Experimental: After two weeks (14 days) acclimation in dim light (under 10-30 lux), female BALBc/J (10-12 weeks) were dark-adapted for 24 hrs. All compound injections were done in darkness with din-red light as needed. All mice were placed in light box after applying dilator (tropicamide or phenylephirine) topically. Then light was left on for 4 h with ˜3000 lux followed by dark recovery at the same condition with dark adaptation until any experimental procedure is ready or being placed in dim light condition (under 10-30 lux). Mice were then followed for 3-7 days with OCT, ERG, functional testing, and/or immunohistochemical analysis.

CC[C@H](NC(=O)c1cc(-c2cc(C(=O)N[C@@H](C)CC)c3nc(N)nn3c2)cs1)c1ccc(F)cc1 [Compound 112, 2-Amino-N-[(2S)-butan-2-yl]-6-(5-{[(1S)-1-(4-fluorophenyl)propyl]carbamoyl}thiophen-3-yl)[1,2,4]triazolo[1,5-a]pyridine-8-carboxamide]
retained vision [1]: ~80%
p-cJun intensity in the RGCs (DLK pathway activation): decreased
a wave amplitude in photoreceptors ([2]; serial ERG): higher
b wave amplitude in inner retinal cells ([2]; serial ERG): higher
outer retinal layer (ORL) thickness ([2]; serial OCT): higher
